From patent US8178694B2, “Heterocyclylaminoalkyl substituted benzimidazoles” (Tibotec Pharmaceuticals Ltd., priority 2005, dated 2012) come the findings set out here.

Data set [1] concerns Respiratory Syncytial Virus. As to the kind of experiment: In vitro screening for activity against Respiratory Syncytial Virus (tetrazolium-based colorimetric assay, HeLa cells). It counts as cell-based. The settings on record: human respiratory syncytial virus, 168 h; protection against cytopathology caused by RSV in HeLa cells, MTT readout seven days after infection. The source says: The percent protection against cytopathology caused by viruses (antiviral activity or EC50) achieved by tested compounds and their cytotoxicity (CC50) are both calculated from dose-response curves. The selectivity of the antiviral effect is represented by the selectivity index (SI), calculated by dividing the CC50 (cytotoxic dose for 50% of the cells) by the EC50 (antiviral activity for 50% of the cells).
Automated tetrazolium-based colorimetric assays were used for determination of EC50 and CC50 of test compounds. Flat-bottom, 96-well plastic microtiter trays were filled with 180 μl of Eagle's Basal Medium, supplemented with 5% FCS (0% for FLU) and 20 mM Hepes buffer. Subsequently, stock solutions (7.8× final test concentration) of compounds were added in 45 μl volumes to a series of triplicate wells so as to allow simultaneous evaluation of their effects on virus- and mock-infected cells. Five five-fold dilutions were made directly in the microtiter trays using a robot system. Untreated virus controls, and HeLa cell controls were included in each test. Approximately 100 TCID50 of Respiratory Syncytial Virus was added to two of the three rows in a volume of 50 μl. The same volume of medium was added to the third row to measure the cytotoxicity of the compounds at the same concentrations as those used to measure the antiviral activity. After two hours of incubation, a suspension (4×10^5 cells/ml) of HeLa cells was added to all wells in a volume of 50 μl. The cultures were incubated at 37° C. in a 5% CO2 atmosphere. Seven days after infection the cytotoxicity and the antiviral activity was examined spectrophotometrically. To each well of the microtiter tray, 25 μl of a solution of MTT (3-(4,5-dimethylthiazol-2-yl)-2,5-diphenyltetrazolium bromide) was added. The trays were further incubated at 37° C. for 2 hours, after which the medium was removed from each cup. Solubilization of the formazan crystals was achieved by adding 100 μl 2-propanol. Complete dissolution of the formazan crystals were obtained after the trays have been placed on a plate shaker for 10 min. Finally, the absorbances were read in an eight-channel computer-controlled photometer (Multiskan MCC, Flow Laboratories) at two wavelengths (540 and 690 nm). The absorbance measured at 690 nm was automatically subtracted from the absorbance at 540 nm, so as to eliminate the effects of non-specific absorption.

For `Cc1ccc(O)c(Cn2c(NCCCN3CCOCC3)nc3ccc(CNc4cnccc4CCO)cc32)n1` [g-3], the melting point is 207 °C. The compound further gave an EC50 in data set [1] of 50.1 nM.

The compound `OCCc1ccncc1NCc1ccc2nc(NCCCN3CCOCC3)n(Cc3ncccc3O)c2c1` [h-3] returned a melting point of 142 °C. The response in data set [1] was half-maximal at 447 nM (EC50).

In turn, `Cc1ccc(O)c(Cn2c(NCCCN3CCOCC3)nc3ccc(CNc4cccnc4CCO)cc32)n1` [c-3] had an EC50 in data set [1] of 31.6 nM.

Take `OCCc1ncccc1NCc1ccc2nc(NCCCN3CCOCC3)n(Cc3ncccc3O)c2c1` [e-1]: the EC50 in data set [1] is 200 nM.

Broadly, the EC50 is the concentration needed to bring the measured effect to its halfway point. A higher EC50 goes with a less potent agent. By melting point is commonly meant the temperature of the solid-liquid transition.
